Assays:
Assay in all cases: KINOMEscan
Type in all cases: binding
Settings in all cases: 10000 nM; read-out: Percent Control
MAPKAPK2 = target: T1, MAPKAPK2 (Homo sapiens, UniProt P49137)
T1 construct: purchased DiscoverX KINOMEscan scanEDGE; Eurofins Cerep SafetyScreen87
Procedure: (§1) The possibility of KDS12025 on kinase off-target, the KINOMEscan panel of scanEDGE assay was conducted in DiscoverX (CA, USA) using a site-directed competition binding with the test compounds. The assay results are given in Supplementary Table 4 and experimental information is available on the DiscoverX web page (www.discoverx.com). Moreover, the Delta SafetyScreen87 panel assay was conducted in Eurofins Discovery (Cerep, France). The assay results are given in Supplementary Table 5 and experimental information is available on the DiscoverX web page (https://www.eurofinsdiscoveryservices.com).

SRPK3 = target: T2, SRPK3 (Homo sapiens, UniProt Q9UPE1)
T2 construct: purchased DiscoverX KINOMEscan scanEDGE; Eurofins Cerep SafetyScreen87
Procedure: as §1

SNARK = target: T3, SNARK (Homo sapiens, UniProt Q9H093)
T3 construct: purchased DiscoverX KINOMEscan scanEDGE; Eurofins Cerep SafetyScreen87
Procedure: as §1

IKK-beta = target: T4, IKK-beta (Homo sapiens, UniProt O14920)
T4 construct: purchased DiscoverX KINOMEscan scanEDGE; Eurofins Cerep SafetyScreen87
Procedure: as §1

BRAF(V600E) = target: T5, BRAF(V600E) (Homo sapiens, UniProt P15056, V600E)
T5 construct: purchased DiscoverX KINOMEscan scanEDGE; Eurofins Cerep SafetyScreen87
Procedure: as §1

CSNK1D = target: T6, CSNK1D (Homo sapiens, UniProt P48730)
T6 construct: purchased DiscoverX KINOMEscan scanEDGE; Eurofins Cerep SafetyScreen87
Procedure: as §1

ABL1-nonphosphorylated = target: T7, ABL1-nonphosphorylated (Homo sapiens, UniProt P00519)
T7 construct: purchased DiscoverX KINOMEscan scanEDGE; Eurofins Cerep SafetyScreen87
Procedure: as §1

ABL1-phosphorylated = target: T8, ABL1-phosphorylated (Homo sapiens, UniProt P00519)
T8 construct: purchased DiscoverX KINOMEscan scanEDGE; Eurofins Cerep SafetyScreen87
Procedure: as §1

RIOK2 = target: T9, RIOK2 (Homo sapiens, UniProt Q9BVS4)
T9 construct: purchased DiscoverX KINOMEscan scanEDGE; Eurofins Cerep SafetyScreen87
Procedure: as §1

CDK7 = target: T10, CDK7 (Homo sapiens, UniProt P50613)
T10 construct: purchased DiscoverX KINOMEscan scanEDGE; Eurofins Cerep SafetyScreen87
Procedure: as §1

CDK2 = target: T11, CDK2 (Homo sapiens, UniProt P24941)
T11 construct: purchased DiscoverX KINOMEscan scanEDGE; Eurofins Cerep SafetyScreen87
Procedure: as §1

JNK3 = target: T12, JNK3 (Homo sapiens, UniProt P53779)
T12 construct: purchased DiscoverX KINOMEscan scanEDGE; Eurofins Cerep SafetyScreen87
Procedure: as §1

ALK = target: T13, ALK (Homo sapiens, UniProt Q9UM73)
T13 construct: purchased DiscoverX KINOMEscan scanEDGE; Eurofins Cerep SafetyScreen87
Procedure: as §1

PAK1 = target: T14, PAK1 (Homo sapiens, UniProt Q13153)
T14 construct: purchased DiscoverX KINOMEscan scanEDGE; Eurofins Cerep SafetyScreen87
Procedure: as §1

MEK2 = target: T15, MEK2 (Homo sapiens, UniProt P36507)
T15 construct: purchased DiscoverX KINOMEscan scanEDGE; Eurofins Cerep SafetyScreen87
Procedure: as §1

DCAMKL1 = target: T16, DCAMKL1 (Homo sapiens, UniProt O15075)
T16 construct: purchased DiscoverX KINOMEscan scanEDGE; Eurofins Cerep SafetyScreen87
Procedure: as §1

PRKCE = target: T17, PRKCE (Homo sapiens, UniProt Q02156)
T17 construct: purchased DiscoverX KINOMEscan scanEDGE; Eurofins Cerep SafetyScreen87
Procedure: as §1

EGFR = target: T18, EGFR (Homo sapiens, UniProt P00533)
T18 construct: purchased DiscoverX KINOMEscan scanEDGE; Eurofins Cerep SafetyScreen87
Procedure: as §1

CHEK1 = target: T19, CHEK1 (Homo sapiens, UniProt O14757)
T19 construct: purchased DiscoverX KINOMEscan scanEDGE; Eurofins Cerep SafetyScreen87
Procedure: as §1

PIK3CG = target: T20, PIK3CG (Homo sapiens, UniProt P48736)
T20 construct: purchased DiscoverX KINOMEscan scanEDGE; Eurofins Cerep SafetyScreen87
Procedure: as §1

ZAP70 = target: T21, ZAP70 (Homo sapiens, UniProt P43403)
T21 construct: purchased DiscoverX KINOMEscan scanEDGE; Eurofins Cerep SafetyScreen87
Procedure: as §1

BTK = target: T22, BTK (Homo sapiens, UniProt Q06187)
T22 construct: purchased DiscoverX KINOMEscan scanEDGE; Eurofins Cerep SafetyScreen87
Procedure: as §1

SRC = target: T23, SRC (Homo sapiens, UniProt P12931)
T23 construct: purchased DiscoverX KINOMEscan scanEDGE; Eurofins Cerep SafetyScreen87
Procedure: as §1

AURKB = target: T24, AURKB (Homo sapiens, UniProt Q96GD4)
T24 construct: purchased DiscoverX KINOMEscan scanEDGE; Eurofins Cerep SafetyScreen87
Procedure: as §1

CDK9 = target: T25, CDK9 (Homo sapiens, UniProt P50750)
T25 construct: purchased DiscoverX KINOMEscan scanEDGE; Eurofins Cerep SafetyScreen87
Procedure: as §1

[1] = target: T26, ABL1(T315I)-phosphorylated (Homo sapiens, UniProt P00519, T315I)
T26 construct: purchased DiscoverX KINOMEscan scanEDGE; Eurofins Cerep SafetyScreen87
Procedure: as §1

JNK1 = target: T27, JNK1 (Homo sapiens, UniProt P45983)
T27 construct: purchased DiscoverX KINOMEscan scanEDGE; Eurofins Cerep SafetyScreen87
Procedure: as §1

PDGFRA = target: T28, PDGFRA (Homo sapiens, UniProt P16234)
T28 construct: purchased DiscoverX KINOMEscan scanEDGE; Eurofins Cerep SafetyScreen87
Procedure: as §1

KIT(D816V) = target: T29, KIT(D816V) (Homo sapiens, UniProt P10721, D816V)
T29 construct: purchased DiscoverX KINOMEscan scanEDGE; Eurofins Cerep SafetyScreen87
Procedure: as §1

PIK3CA = target: T30, PIK3CA (Homo sapiens, UniProt P42336)
T30 construct: purchased DiscoverX KINOMEscan scanEDGE; Eurofins Cerep SafetyScreen87
Procedure: as §1

KIT = target: T31, KIT (Homo sapiens, UniProt P10721)
T31 construct: purchased DiscoverX KINOMEscan scanEDGE; Eurofins Cerep SafetyScreen87
Procedure: as §1

ERK1 = target: T32, ERK1 (Homo sapiens, UniProt P27361)
T32 construct: purchased DiscoverX KINOMEscan scanEDGE; Eurofins Cerep SafetyScreen87
Procedure: as §1

RET = target: T33, RET (Homo sapiens, UniProt P07949)
T33 construct: purchased DiscoverX KINOMEscan scanEDGE; Eurofins Cerep SafetyScreen87
Procedure: as §1

INSR = target: T34, INSR (Homo sapiens, UniProt P06213)
T34 construct: purchased DiscoverX KINOMEscan scanEDGE; Eurofins Cerep SafetyScreen87
Procedure: as §1

PIM3 = target: T35, PIM3 (Homo sapiens, UniProt Q86V86)
T35 construct: purchased DiscoverX KINOMEscan scanEDGE; Eurofins Cerep SafetyScreen87
Procedure: as §1

PIM1 = target: T36, PIM1 (Homo sapiens, UniProt P11309)
T36 construct: purchased DiscoverX KINOMEscan scanEDGE; Eurofins Cerep SafetyScreen87
Procedure: as §1

TRKA = target: T37, TRKA (Homo sapiens, UniProt P04629)
T37 construct: purchased DiscoverX KINOMEscan scanEDGE; Eurofins Cerep SafetyScreen87
Procedure: as §1

DYRK1B = target: T38, DYRK1B (Homo sapiens, UniProt Q9Y463)
T38 construct: purchased DiscoverX KINOMEscan scanEDGE; Eurofins Cerep SafetyScreen87
Procedure: as §1

AXL = target: T39, AXL (Homo sapiens, UniProt P30530)
T39 construct: purchased DiscoverX KINOMEscan scanEDGE; Eurofins Cerep SafetyScreen87
Procedure: as §1

PDGFRB = target: T40, PDGFRB (Homo sapiens, UniProt P09619)
T40 construct: purchased DiscoverX KINOMEscan scanEDGE; Eurofins Cerep SafetyScreen87
Procedure: as §1

JNK2 = target: T41, JNK2 (Homo sapiens, UniProt P45984)
T41 construct: purchased DiscoverX KINOMEscan scanEDGE; Eurofins Cerep SafetyScreen87
Procedure: as §1

T25 sequence (P50750 whole entry): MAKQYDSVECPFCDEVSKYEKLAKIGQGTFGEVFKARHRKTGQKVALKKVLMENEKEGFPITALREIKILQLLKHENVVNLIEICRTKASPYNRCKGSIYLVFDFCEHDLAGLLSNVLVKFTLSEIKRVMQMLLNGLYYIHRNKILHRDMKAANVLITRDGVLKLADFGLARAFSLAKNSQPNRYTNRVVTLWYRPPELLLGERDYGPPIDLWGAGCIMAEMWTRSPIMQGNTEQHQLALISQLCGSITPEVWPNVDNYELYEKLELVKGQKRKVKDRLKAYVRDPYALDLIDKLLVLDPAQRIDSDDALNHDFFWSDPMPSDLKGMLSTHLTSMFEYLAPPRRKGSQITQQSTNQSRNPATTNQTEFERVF
T5 sequence (P15056 whole entry V600E): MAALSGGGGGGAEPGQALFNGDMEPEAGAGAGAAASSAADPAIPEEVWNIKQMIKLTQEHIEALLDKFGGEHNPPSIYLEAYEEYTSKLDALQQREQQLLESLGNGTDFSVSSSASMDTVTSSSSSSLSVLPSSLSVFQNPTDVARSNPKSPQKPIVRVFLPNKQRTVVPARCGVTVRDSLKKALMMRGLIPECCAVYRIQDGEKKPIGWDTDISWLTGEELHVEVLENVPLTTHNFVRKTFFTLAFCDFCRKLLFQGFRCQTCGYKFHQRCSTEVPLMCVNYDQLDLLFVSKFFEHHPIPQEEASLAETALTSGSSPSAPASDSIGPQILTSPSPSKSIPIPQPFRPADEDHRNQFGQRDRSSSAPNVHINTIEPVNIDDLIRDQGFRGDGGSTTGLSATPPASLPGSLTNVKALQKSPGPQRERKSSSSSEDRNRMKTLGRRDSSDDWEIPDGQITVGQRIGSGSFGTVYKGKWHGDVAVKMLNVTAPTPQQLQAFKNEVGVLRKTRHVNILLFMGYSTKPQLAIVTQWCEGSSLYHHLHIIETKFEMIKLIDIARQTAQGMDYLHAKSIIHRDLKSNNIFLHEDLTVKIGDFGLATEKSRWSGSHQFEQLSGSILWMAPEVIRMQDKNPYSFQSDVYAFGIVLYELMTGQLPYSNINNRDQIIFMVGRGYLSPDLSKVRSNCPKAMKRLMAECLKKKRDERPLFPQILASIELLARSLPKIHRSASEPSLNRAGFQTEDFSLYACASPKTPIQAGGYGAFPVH
T32 sequence (P27361 whole entry): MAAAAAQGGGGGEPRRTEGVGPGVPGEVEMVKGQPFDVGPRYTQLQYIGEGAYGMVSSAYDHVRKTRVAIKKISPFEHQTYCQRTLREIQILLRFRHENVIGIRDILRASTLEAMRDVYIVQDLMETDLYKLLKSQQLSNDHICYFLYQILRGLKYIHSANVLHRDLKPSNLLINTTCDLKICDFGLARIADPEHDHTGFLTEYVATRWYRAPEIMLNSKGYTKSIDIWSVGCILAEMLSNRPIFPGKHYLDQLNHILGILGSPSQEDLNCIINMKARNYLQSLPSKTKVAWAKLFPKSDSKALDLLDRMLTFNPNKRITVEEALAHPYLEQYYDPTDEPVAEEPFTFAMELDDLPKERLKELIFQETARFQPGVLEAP
T1 sequence (P49137 whole entry): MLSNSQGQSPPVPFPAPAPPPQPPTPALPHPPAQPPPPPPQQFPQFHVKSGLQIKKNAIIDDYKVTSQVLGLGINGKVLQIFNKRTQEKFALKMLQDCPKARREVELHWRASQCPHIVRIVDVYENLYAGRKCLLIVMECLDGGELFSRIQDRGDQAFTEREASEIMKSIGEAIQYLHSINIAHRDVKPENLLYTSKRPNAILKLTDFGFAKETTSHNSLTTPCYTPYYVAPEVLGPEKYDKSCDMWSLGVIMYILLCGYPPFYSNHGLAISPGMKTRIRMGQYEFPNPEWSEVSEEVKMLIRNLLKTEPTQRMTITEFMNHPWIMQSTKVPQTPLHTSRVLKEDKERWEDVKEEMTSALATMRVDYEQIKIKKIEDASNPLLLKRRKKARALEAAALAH
T30 sequence (P42336 whole entry): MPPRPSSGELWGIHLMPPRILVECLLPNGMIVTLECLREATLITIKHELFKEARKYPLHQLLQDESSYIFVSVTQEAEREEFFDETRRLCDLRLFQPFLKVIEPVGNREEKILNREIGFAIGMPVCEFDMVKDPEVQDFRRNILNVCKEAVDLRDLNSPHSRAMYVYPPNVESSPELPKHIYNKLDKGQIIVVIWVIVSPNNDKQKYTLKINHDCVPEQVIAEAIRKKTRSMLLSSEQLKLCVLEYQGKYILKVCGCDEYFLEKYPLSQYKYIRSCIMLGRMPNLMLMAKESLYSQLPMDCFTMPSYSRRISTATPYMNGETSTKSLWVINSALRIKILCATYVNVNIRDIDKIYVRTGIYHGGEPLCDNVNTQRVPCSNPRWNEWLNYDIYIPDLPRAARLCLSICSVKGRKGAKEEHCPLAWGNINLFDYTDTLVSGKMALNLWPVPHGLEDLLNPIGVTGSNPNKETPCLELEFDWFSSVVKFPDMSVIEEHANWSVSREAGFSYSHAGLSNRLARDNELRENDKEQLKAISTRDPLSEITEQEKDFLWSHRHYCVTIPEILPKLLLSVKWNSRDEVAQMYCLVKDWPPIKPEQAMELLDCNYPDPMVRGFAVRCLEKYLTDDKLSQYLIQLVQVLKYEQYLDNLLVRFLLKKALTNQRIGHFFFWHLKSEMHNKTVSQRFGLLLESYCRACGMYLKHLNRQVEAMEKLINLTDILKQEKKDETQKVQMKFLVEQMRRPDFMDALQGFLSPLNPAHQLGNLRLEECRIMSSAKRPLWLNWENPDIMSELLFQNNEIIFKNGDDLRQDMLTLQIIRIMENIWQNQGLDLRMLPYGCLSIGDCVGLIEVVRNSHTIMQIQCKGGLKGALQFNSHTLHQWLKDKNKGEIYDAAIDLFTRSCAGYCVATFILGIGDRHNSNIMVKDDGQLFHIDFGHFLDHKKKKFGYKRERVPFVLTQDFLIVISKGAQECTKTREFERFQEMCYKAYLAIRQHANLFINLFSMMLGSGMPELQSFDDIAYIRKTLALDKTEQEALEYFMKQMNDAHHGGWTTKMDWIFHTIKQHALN
T22 sequence (Q06187 whole entry): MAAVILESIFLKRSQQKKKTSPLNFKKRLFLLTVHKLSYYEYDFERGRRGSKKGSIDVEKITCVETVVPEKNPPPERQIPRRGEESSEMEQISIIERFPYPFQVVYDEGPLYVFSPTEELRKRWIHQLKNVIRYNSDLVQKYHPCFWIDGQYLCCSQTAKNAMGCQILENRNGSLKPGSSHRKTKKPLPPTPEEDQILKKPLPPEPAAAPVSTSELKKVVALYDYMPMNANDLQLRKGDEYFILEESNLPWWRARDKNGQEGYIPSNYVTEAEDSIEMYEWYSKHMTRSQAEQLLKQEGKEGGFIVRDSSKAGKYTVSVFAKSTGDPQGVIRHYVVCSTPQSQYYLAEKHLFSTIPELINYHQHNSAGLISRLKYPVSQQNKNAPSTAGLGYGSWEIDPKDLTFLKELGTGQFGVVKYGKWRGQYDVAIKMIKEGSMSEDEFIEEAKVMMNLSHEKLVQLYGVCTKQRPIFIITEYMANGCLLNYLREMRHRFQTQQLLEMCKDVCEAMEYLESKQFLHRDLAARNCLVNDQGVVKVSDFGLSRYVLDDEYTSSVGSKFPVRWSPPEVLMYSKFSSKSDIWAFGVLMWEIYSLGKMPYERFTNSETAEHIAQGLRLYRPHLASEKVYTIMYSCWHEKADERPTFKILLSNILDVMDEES
T6 sequence (P48730 whole entry): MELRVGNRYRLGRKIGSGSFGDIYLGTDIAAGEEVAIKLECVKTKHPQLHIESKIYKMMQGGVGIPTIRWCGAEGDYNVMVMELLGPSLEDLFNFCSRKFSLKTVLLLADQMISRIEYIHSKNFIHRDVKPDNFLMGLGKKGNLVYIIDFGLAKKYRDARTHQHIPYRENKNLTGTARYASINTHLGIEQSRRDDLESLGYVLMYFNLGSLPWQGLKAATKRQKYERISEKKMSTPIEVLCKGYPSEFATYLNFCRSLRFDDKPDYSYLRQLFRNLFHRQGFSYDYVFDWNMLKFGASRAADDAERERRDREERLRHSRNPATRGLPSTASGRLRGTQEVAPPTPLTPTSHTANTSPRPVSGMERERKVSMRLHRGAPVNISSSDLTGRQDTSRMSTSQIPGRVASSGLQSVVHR
T37 sequence (P04629 33-796): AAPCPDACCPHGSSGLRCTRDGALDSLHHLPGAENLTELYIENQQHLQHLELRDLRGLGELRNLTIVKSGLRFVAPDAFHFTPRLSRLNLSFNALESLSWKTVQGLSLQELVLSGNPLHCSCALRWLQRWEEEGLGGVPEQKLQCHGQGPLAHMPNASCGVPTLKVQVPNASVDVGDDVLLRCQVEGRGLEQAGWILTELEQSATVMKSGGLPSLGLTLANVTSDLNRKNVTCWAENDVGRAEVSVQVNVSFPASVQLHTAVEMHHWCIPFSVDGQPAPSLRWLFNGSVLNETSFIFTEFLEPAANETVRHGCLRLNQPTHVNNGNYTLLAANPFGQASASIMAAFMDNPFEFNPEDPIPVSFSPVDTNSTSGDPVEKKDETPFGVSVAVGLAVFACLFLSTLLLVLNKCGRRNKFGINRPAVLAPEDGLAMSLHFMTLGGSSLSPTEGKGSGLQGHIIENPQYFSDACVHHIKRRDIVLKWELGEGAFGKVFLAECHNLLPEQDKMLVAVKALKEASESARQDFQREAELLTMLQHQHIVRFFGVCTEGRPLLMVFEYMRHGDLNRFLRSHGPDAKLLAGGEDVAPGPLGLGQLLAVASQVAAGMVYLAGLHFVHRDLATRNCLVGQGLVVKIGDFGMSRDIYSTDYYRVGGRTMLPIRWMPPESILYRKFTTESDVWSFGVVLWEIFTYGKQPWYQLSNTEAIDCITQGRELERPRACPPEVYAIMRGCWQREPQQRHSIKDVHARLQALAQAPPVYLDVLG

CNc1ccc(NCCc2ccccc2OC)cc1.Cl [KDS12025, N^1-(2-methoxyphenethyl)-N^4-methylbenzene-1,4-diamine hydrochloride salt]
remaining binding at 10 µM (MAPKAPK2): 75%
remaining binding at 10 µM (SRPK3): 91%
remaining binding at 10 µM (SNARK): 100%
remaining binding at 10 µM (IKK-beta): 100%
remaining binding at 10 µM (BRAF(V600E)): 100%
remaining binding at 10 µM (CSNK1D): 88%
remaining binding at 10 µM (ABL1-nonphosphorylated): 72%
remaining binding at 10 µM (ABL1-phosphorylated): 100%
remaining binding at 10 µM (RIOK2): 98%
remaining binding at 10 µM (CDK7): 89%
remaining binding at 10 µM (CDK2): 92%
remaining binding at 10 µM (JNK3): 68%
remaining binding at 10 µM (ALK): 98%
remaining binding at 10 µM (PAK1): 75%
remaining binding at 10 µM (MEK2): 91%
remaining binding at 10 µM (DCAMKL1): 82%
remaining binding at 10 µM (PRKCE): 100%
remaining binding at 10 µM (EGFR): 48%
remaining binding at 10 µM (CHEK1): 82%
remaining binding at 10 µM (PIK3CG): 100%
remaining binding at 10 µM (ZAP70): 88%
remaining binding at 10 µM (BTK): 100%
remaining binding at 10 µM (SRC): 72%
remaining binding at 10 µM (AURKB): 78%
remaining binding at 10 µM (CDK9): 83%
remaining binding at 10 µM [1]: 84%
remaining binding at 10 µM (JNK1): 75%
remaining binding at 10 µM (PDGFRA): 85%
remaining binding at 10 µM (KIT(D816V)): 91%
remaining binding at 10 µM (PIK3CA): 63%
remaining binding at 10 µM (KIT): 90%
remaining binding at 10 µM (ERK1): 83%
remaining binding at 10 µM (RET): 100%
remaining binding at 10 µM (INSR): 85%
remaining binding at 10 µM (PIM3): 84%
remaining binding at 10 µM (PIM1): 95%
remaining binding at 10 µM (TRKA): 100%
remaining binding at 10 µM (DYRK1B): 67%
remaining binding at 10 µM (AXL): 95%
remaining binding at 10 µM (PDGFRB): 92%
remaining binding at 10 µM (JNK2): 91%
